Assay [1] relates to U87MG cells. In words: Cellular assay, inhibition of 2-HG production in U87MG cells. It counts as cell-based. The conditions noted are these: Homo sapiens, U-87 MG, 48 h. The protocol:
Cells (HT1080 or U87MG) are grown in T125 flasks in DMEM containing 10% FBS, 1× penicillin/streptomycin and 500 ug/mL G418 (present in U87MG cells only). They are harvested by trypsin and seeded into 96 well white bottom plates at a density of 5000 cell/well in 100 ul/well in DMEM with 10% FBS. […] Cells are incubated overnight at 37° C. in 5% CO2. The next day test compounds are made up at 2× the final concentration and 100 ul are added to each cell well. The final concentration of DMSO is 0.2% and the DMSO control wells are plated in row G. The plates are then placed in the incubator for 48 hours. […] The cell plate is placed back in the incubator for another 24 hours. At 72 hours post compound addition, 10 mL/plate of Promega Cell Titer Glo reagent is thawed and mixed. The cell plate is removed from the incubator and allowed to equilibrate to room temperature. Then 100 ul of Promega Cell Titer Glo reagent is added to each well of media. The cell plate is then placed on an orbital shaker for 10 minutes and then allowed to sit at room temperature for 20 minutes. The plate is then read for luminescence with an integration time of 500 ms.

Assay [2] deals with IDH1 R132C (Homo sapiens (Human), UniProt O75874, R132C). In words: In vitro NADPH depletion assay for IDH1m inhibitors (R132C). The conditions noted are these: IDH1 R132C enzyme, read-out: IDH R132C IC50. It counts as biochemical. The protocol: (§1) A test compound is prepared as 10 mM stock in DMSO and diluted to 50× final concentration in DMSO, for a 50 μl reaction mixture. IDH enzyme activity converting alpha-ketoglutarate to 2-hydroxyglutaric acid is measured using a NADPH depletion assay. In the assay the remaining cofactor is measured at the end of the reaction with the addition of a catalytic excess of diaphorase and resazurin, to generate a fluorescent signal in proportion to the amount of NADPH remaining. […] The reaction is started with the addition of […] Substrate Mix ([…] NADPH, 5 mM alpha-ketoglutarate, in Assay Buffer) and the mixture is incubated for 90 minutes at room temperature.
IDH1 R132C, sequence (O75874 whole entry R132C): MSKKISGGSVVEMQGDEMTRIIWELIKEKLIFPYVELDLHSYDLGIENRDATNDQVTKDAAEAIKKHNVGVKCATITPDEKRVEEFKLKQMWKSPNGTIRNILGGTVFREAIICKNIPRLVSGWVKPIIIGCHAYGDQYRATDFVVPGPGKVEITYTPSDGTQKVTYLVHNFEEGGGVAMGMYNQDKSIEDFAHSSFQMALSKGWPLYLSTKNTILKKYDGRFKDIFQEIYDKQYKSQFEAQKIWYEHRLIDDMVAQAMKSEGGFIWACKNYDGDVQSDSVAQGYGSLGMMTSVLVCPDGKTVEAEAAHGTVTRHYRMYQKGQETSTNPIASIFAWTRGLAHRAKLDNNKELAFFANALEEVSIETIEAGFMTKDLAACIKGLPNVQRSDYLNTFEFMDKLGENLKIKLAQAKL
The concentration of NADPH and alpha-ketoglutarate in the Substrate Buffer is 20 μM and 1 mM, respectively.

Assay [3] concerns the target IDH1 R132H (Homo sapiens (Human), UniProt O75874, R132H). In words: In vitro NADPH depletion assay for IDH1m inhibitors (R132H). It counts as biochemical. The conditions noted are these: IDH1 R132H enzyme, read-out: IDH R132H IC50. The protocol: as §1

The record followed here is patent publication US11021515B2, “Therapeutically active compounds and their methods of use” (Agios Pharmaceuticals, Inc., priority 2013, dated 2021).

IDH1 R132H, sequence (O75874 whole entry R132H): as the sequence (O75874 whole entry R132C) above, with C132H counted along it

`CS(=O)(=O)c1cc(F)cc(N(C(=O)[C@@H]2CCC(=O)N2c2cc(C#N)ccn2)C(C(=O)NC2CCC(F)(F)CC2)c2ccccc2Cl)c1` (mixture of isomers) [Compound 105, (2S)—N-(1-(2-Chlorophenyl)-2-((4,4-difluorocyclohexyl)amino)-2-oxoethyl)-1-(4-cyanopyridin-2-yl)-N-(3-fluoro-5-(methylsulfonyl)phenyl)-5-oxopyrrolidine-2-carboxamide]: in assay [1], the IC50 was < 0.1 µM. As for `CS(=O)(=O)c1cc(F)cc(N(C(=O)[C@@H]2CCC(=O)N2c2cc(C#N)ccn2)C(C(=O)NC2CC(F)(F)C2)c2ccccc2Cl)c1` (mixture of isomers) [Compound 110, (2S)—N-(1-(2-Chlorophenyl)-2-((3,3-difluorocyclobutyl)amino)-2-oxoethyl)-1-(4-cyanopyridin-2-yl)-N-(3-fluoro-5-(methylsulfonyl)phenyl)-5-oxopyrrolidine-2-carboxamide], the IC50 in assay [1], in assay [2] and in assay [3] was < 0.1 µM throughout. In turn, `O=C(NC1CC(F)(F)C1)[C@H](c1ccccc1Cl)N(C(=O)[C@@H]1CCC(=O)N1c1ccccn1)c1cccc(F)c1` [Compound 5] yielded an IC50 in assay [1] of 0.1 to 0.5 µM. For `O=C(NC1CC(F)(F)C1)[C@H](c1ccccc1Cl)N(C(=O)[C@@H]1CCC(=O)N1c1cccc(F)n1)c1cccc(F)c1` [Compound 11], the IC50 in assay [2] was in the range of 0.1 to 0.5 µM. As to `O=C(NC1CC(F)(F)C1)[C@H](c1ccccc1Cl)N(C(=O)[C@@H]1CCC(=O)N1c1nccc2ccccc12)c1cccc(F)c1` [Compound 16], the IC50 in assay [2] and in assay [3] was 0.1 to 0.5 µM in each case. As for `O=C(NC1CC(F)(F)C1)[C@H](c1ccccc1Cl)N(C(=O)[C@@H]1CCC(=O)N1c1cnccn1)c1cccc(F)c1` [Compound 18], the IC50 in assay [1] was < 0.1 µM. On the same count and under the same terms, as for `O=C(NC1CC(F)(F)C1)[C@H](c1ccccc1Cl)N(C(=O)[C@@H]1CCC(=O)N1c1ccccc1)c1cccc(F)c1` [Compound 23], the figure is 0.1 to 0.5 µM; as for `N#Cc1ccnc(N2C(=O)OC[C@H]2C(=O)N(c2cccc(F)c2)[C@H](C(=O)NC2CCC(F)(F)CC2)c2ccccc2Cl)c1` [Compound 78, (S)—N—((S)-1-(2-Chlorophenyl)-2-((4,4-difluorocyclohexyl)amino)-2-oxoethyl)-3-(4-cyano-pyridin-2-yl)-N-(3-fluorophenyl)-2-oxooxazolidine-4-carboxamide], < 0.1 µM; as for `CCOC(=O)CN1C[C@@H](C(=O)N(c2cccc(F)c2)[C@H](C(=O)NC2CC(F)(F)C2)c2ccccc2Cl)N(c2cc(C#N)ccn2)C1=O` [Compound 94, Ethyl 2-((4S)-4-((1-(2-chlorophenyl)-2-((3,3-difluorocyclobutyl)amino)-2-oxoethyl)(3-fluorophenyl)carbamoyl)-3-(4-cyanopyridin-2-yl)-2-oxoimidazolidin-1-yl)acetate], < 0.1 µM. The same measure, in the same setting: the same measure for `CS(=O)(=O)c1cc(F)cc(N(C(=O)[C@@H]2CCC(=O)N2c2nccc(C#N)n2)[C@H](C(=O)NC2CC(F)(F)C2)c2ccccc2Cl)c1` [Compound 109, (S)—N—((S)-1-(2-Chlorophenyl)-2-((3,3-difluorocyclobutyl)amino)-2-oxoethyl)-1-(4-cyanopyrimidin-2-yl)-N-(3-fluoro-5-(methylsulfonyl)phenyl)-5-oxopyrrolidine-2-carboxamide]: 0.1 to 0.5 µM.

`N#Cc1ccnc(N2C(=O)CC[C@H]2C(=O)N(c2cccc(C3(O)CC3)c2)[C@H](C(=O)NC2CC(F)(F)C2)c2ccccc2Cl)c1` [Compound 140, (S)—N—((S)-1-(2-Xhlorophenyl)-2-(3,3-difluorocyclobutylamino)-2-oxoethyl)-1-(4-cyanopyridin-2-yl)-N-(3-(1-hydroxycyclopropyl)phenyl)-5-oxopyrrolidine-2-carboxamide]: in assay [1], the IC50 was < 0.1 µM.
